Consider one compound from publication PMC9822434, “Estradiol-Based Salicylaldehyde (Thio)Semicarbazones and Their Copper Complexes with Anticancer, Antibacterial and Antioxidant Activities” (Molecules, 2022).

For orientation: MIC means the lowest concentration found to suppress growth. Lower therefore signals a more susceptible organism. The term IC50 denotes the point on the concentration scale where inhibition reaches its midpoint. One may read the melting point as the temperature of the solid-liquid transition.

In brackets after ≈: the same amount, converted by molar mass.

Data set [1] relates to E. faecalis ATCC 29212. Put plainly: MIC determination. In kind it is cell-based, Enterococcus faecalis. Particulars: Enterococcus faecalis, ATCC29212; Gram-positive E. faecalis ATCC 29212; Mueller Hinton Broth. The method, boiled down: (§1)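 Broth microdilution in Mueller Hinton Broth, two-fold serial dilutions starting at 100 µM compound (from 10 mM stocks in 90% DMSO). Each well inoculated with a 10^−4 dilution of overnight culture. MIC read per prior lab method.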

Data set [2] has as its system MCF-7. Kind of data set: MTT cytotoxicity assay. In kind it is cell-based, human. The conditions noted are these: Homo sapiens, MCF7; MCF-7, MTT, 24 h incubation time. The essentials: (§2)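 Cells were exposed 24 h to 0–20 µM (2.5, 5, 10, 15, 20 µM) Cu(II) complexes, ligands or metal salts (equimolar ligand–CuCl2), then 0.5 mg/mL MTT for 1 h at 37 °C. Formazan was dissolved in DMSO and read at 570 nm; viability is relative to untreated control as 100%.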
For orientation: Tetrazolium assays rely on reduction of a dye to a coloured formazan, in cell work by metabolically active cells.

Data set [3] concerns A549. Put plainly: MTT cytotoxicity assay. The format is cell-based, human. Particulars: Homo sapiens, 24 h incubation time. The method, boiled down:
as §2

Data set [4] concerns MCF-7 KCR. Kind of data set: MTT cytotoxicity assay. The conditions noted are these: Homo sapiens, MCF7, 24 h incubation time. The format is cell-based, human. The method, boiled down:
as §2

For data set [5], the system named is DU-145. Kind of data set: MTT cytotoxicity assay. In kind it is cell-based, human. Particulars: Homo sapiens; DU-145, MTT, 24 h incubation time. The essentials: as §2
In data set [6] the test system is S. aureus ATCC 25928. Put plainly: MIC determination. In kind it is cell-based, Staphylococcus aureus. Particulars: Gram-positive S. aureus ATCC 25928, Mueller Hinton Broth. The essentials: as §1
Data set [7] can be described thus: DPPH free radical scavenging assay. The method, boiled down: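 DPPH at 50 µM final mixed with compound (5–50 µM final) in ethanol at 25.0 ± 0.1 °C in tandem cuvette, read spectrophotometrically. Antioxidant activity percentage, IC50 (concentration reducing 50% of DPPH) and Trolox equivalent capacity derived; Trolox as positive control.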
(Loss of DPPH colour is used to gauge radical scavenging.)

The format of data set [8] is physicochemical. The essentials:
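UV–vis pH-metric titrations at 25.0 ± 0.1 °C, I = 0.10 M KCl, 30% (v/v) DMSO/H2O under argon; ligand 20 μM, pH 2.0–12.5, alone or with 1 or 0.5 equiv. Cu(II). Spectra 200–800 nm, 2 cm path; pKa, overall stability constants (β) and species spectra fitted with PSEQUAD.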

For data set [9], the system named is A549, MCF-7, MCF-7 KCR and DU-145 cells. Put plainly: γH2AX immunostaining (DNA double-strand breaks). In kind it is cell-based, human. The conditions noted are these: 20 µM, 3 h. The method, boiled down:
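Cells seeded at 1 × 10^5 per well on coverslips, then fixed with 4% formaldehyde, permeabilized with 0.3% Triton X-100 and blocked in 5% BSA. Stained with anti-γH2AX (1:300) and Alexa 488 secondary (1:600); fluorescence intensity measured by confocal microscopy.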

Where [10] appears, read: Cu(II) complex of the named ligand, 30% (v/v) DMSO/H2O, T = 25.0 °C, I = 0.1 M (KCl).

`C[C@]12CC[C@@H]3c4cc(C=NNC(N)=S)c(O)cc4CC[C@H]3[C@@H]1CCC2O` (stereo partly drawn) [estradiol-TSC, 2-((3,17 Dihydroxy-estra-1,3,5(10)-triene-2-yl)methylene)Hydrazine-1-carbothioamide]: the melting point fell in the range of 229 to 231 °C. Also, in data set [1], the MIC was > 100 µM. For the same compound, the IC50 in [2] is > 20 µM. In [3], the IC50 is 20.5 ± 1.07 µM. Besides, the IC50 in data set [4] was > 20 µM. The IC50 in data set [5] was > 20 µM. Moreover, in data set [6], the MIC stood at 25 µM (≈ 9.34 µg/mL). The same compound gave an MIC in data set [6] (Staphylococcus aureus, ATCC25928) of 25 µM (≈ 9.34 µg/mL). Also, the “TEAC (Trolox equivalent antioxidant capacity)” value in data set [7] (DPPH assay in ethanol, 25 °C) stood at 0.8. The “% Scavenging Effect” value in [7] (DPPH:compound = 1:1 ratio after 30 min, ethanol, 25 °C) is given as 72.0%. The compound further registered an IC50 in data set [7] (in ethanol, T = 25 °C, cDPPH = 50 µM, ccompound = 5−50 µM) of 14.6 µM. Also, in data set [8], the “pKa [CuL]+” value stood at 3.95. In data set [8] (setting [10]), the “logβ [CuLH−1]” value was determined as 9.84 ± 0.03 and the “logβ [CuL]+” value is listed as 13.79 ± 0.03. Besides, the pCu5.0 in [8] (calculated at pH 5.0, cCu(II) = 20 µM, cligand = 20 µM) is listed as 7.8. Besides, in data set [8] (estimated at pH 6.0, cCu(II) = 20 µM, cligand = 20 µM), the pCu6.0 was 9.3. Moreover, the pCu7.4 in [8] (estimated at pH 7.4, cCu(II) = 20 µM, cligand = 20 µM) is listed as 12.1. The “DNA double-strand breaks (γH2AX) vs untreated control cells” value in [9] was “None of these treatments caused a higher degree of DNA damage”.
